Data on one compound can be found in patent US5190934A, “P-subsituted propane-phosphinic acid compounds” (Ciba-Geigy Corporation, priority 1989, dated 1993).

For the test, the system named is "epileptic"-like discharges of pyramidal cells. Nature of the test: Penicilline-induced "epileptic" hippocampal slice preparation. Type of test: cell-based. As to conditions: baclofen at 6 μM. The method, then:
The GABAB antagonists of the present invention interact at the GABAB receptor with IC50 values starting from about 10^-7 M (moles/liter) in rat brain cortex membranes. […] The antagonism against baclofen has also been shown in in vitro electrophysiological models, such as the penicilline-induced "epileptic" hippocampal slice preparation, where baclofen, at a concentration of 6 μM inhibits "epileptic"-like discharges of pyramidal cells. The compounds of the invention antagonise the effects of baclofen at concentrations from approximately 10 to approximately 100 μM. In vivo, antagonism has been shown by ionophoresis of baclofen on rat cerebral cortex, and systemic application of antagonists in doses of 10-100 mg/kg. The muscle relaxant effects of baclofen measured in the rotarod model are also antagonized at doses of about 30 mg/kg i.p.

Each structure is given as a SMILES string.

As to `NCC(CC(=O)O)c1ccc(Cl)cc1` (stereo not shown) [baclofen], the “effect on "epileptic"-like discharges of pyramidal cells” value was “inhibits”.
